Measured values taken from US20240102994A1, “Method to Evaluate the Capability of Compounds on the Trapping of Proteins” (Eisbach Bio GmbH, priority 2020, published 2024).
Entries after “also recorded” stand apart in the source; their conditions may differ.

Assays:
GFP-PARP2 = target: T1, GFP-PARP2 (Homo sapiens, UniProt Q9UGN5); experiment: Live-cell protein trapping assay: GFP-PARP2 at laser micro-irradiation sites; format: cell-based; settings: U2OS cells
T1 construct: expressed in transfected cells; host or cells: U2OS
Excerpt: The disclosed method is used to analyze protein trapping induced by compounds. Live-cell imaging allows monitoring of the accumulation of at least one protein, e.g. which is detectably labelled, e.g. fluorophore-tagged, at the induced DNA lesions over time. Time0 (t0) hereby describes the timepoint before induction of DNA damage by irradiation. Thus, the relative enrichment of the at least one protein at DNA lesions within the imaged time frame (from t0 to tEND) can be quantified. This allows to the analysis of the recruitment and retention (protein trapping) kinetics of the at least one protein, e.g. which is detectably labelled, e.g. fluorophore-tagged, at DNA lesions. Suitably, as a first step the accumulation and/or residence time of a protein, e.g. which is detectably labelled, e.g. fluorophore-tagged, is measured in the absence of a test compound (control). The optimal imaging time is hereby determined by the time in which the majority of the protein has released from the damage site, indicated by the decrease of signal, e.g. fluorescent signal, at the DNA lesion (see FIG. 2A). Subsequently, the accumulation and/or residence time of the protein, e.g. which is detectably labelled, e.g. fluorophore-tagged, may be determined in the presence of at least one test compound. […] Using this method, we examined the trapping of GFP-tagged ALC1 in the presence of ALCi-1 compared to a DMSO control.
Eukaryotic cells were seeded onto 4/8-well Nunc Lab-Tek chambers (Thermo Fisher Scientific) in the corresponding cell culture medium, cultured over night at 37° C. and transfected with fluorophore-tagged protein plasmids using XtremeGENE HP DNA transfection reagent (Sigma). […]
The drug- and control-master-mixes were prepared in Leibovitz's L-15 media (+10% FBS). […] Therefore, the optimal imaging time for the protein of interest was determined by investigation of the trapping and release under control conditions (no treatment). […] Subsequently, the fluorophore-tagged protein was measured in the presence of at least one compound. […]

PARP1-GFP = PARP1-GFP (Homo sapiens, UniProt P09874); settings: wild-type U2OS cells, 10 μM for 1 h, 355 nm laser, 30 minutes, compared to DMSO
Excerpt: The disclosed method is used to analyze protein trapping induced by compounds. Live-cell imaging allows monitoring of the accumulation of at least one protein, e.g. which is detectably labelled, e.g. fluorophore-tagged, at the induced DNA lesions over time. Time0 (t0) hereby describes the timepoint before induction of DNA damage by irradiation. Thus, the relative enrichment of the at least one protein at DNA lesions within the imaged time frame (from t0 to tEND) can be quantified. This allows to the analysis of the recruitment and retention (protein trapping) kinetics of the at least one protein, e.g. which is detectably labelled, e.g. fluorophore-tagged, at DNA lesions. Suitably, as a first step the accumulation and/or residence time of a protein, e.g. which is detectably labelled, e.g. fluorophore-tagged, is measured in the absence of a test compound (control). The optimal imaging time is hereby determined by the time in which the majority of the protein has released from the damage site, indicated by the decrease of signal, e.g. fluorescent signal, at the DNA lesion (see FIG. 2A). Subsequently, the accumulation and/or residence time of the protein, e.g. which is detectably labelled, e.g. fluorophore-tagged, may be determined in the presence of at least one test compound. […]

T1 sequence (Q9UGN5 whole entry): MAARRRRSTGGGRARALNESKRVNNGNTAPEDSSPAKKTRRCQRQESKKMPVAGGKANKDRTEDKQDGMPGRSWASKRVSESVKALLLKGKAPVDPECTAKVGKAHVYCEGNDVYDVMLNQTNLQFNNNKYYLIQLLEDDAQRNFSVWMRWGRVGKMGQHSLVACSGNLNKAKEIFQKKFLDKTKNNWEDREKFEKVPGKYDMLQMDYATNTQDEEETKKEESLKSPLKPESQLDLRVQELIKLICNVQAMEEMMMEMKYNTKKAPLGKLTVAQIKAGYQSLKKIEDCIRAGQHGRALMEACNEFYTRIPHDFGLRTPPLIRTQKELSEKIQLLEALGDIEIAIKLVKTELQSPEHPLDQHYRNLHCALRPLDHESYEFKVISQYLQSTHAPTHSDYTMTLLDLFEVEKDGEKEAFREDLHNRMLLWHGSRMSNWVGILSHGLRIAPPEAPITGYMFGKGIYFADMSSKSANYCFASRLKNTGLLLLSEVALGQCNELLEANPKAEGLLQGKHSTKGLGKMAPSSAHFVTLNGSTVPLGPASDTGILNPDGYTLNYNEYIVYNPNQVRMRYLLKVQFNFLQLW
Sequence of PARP1-GFP (P09874 whole entry): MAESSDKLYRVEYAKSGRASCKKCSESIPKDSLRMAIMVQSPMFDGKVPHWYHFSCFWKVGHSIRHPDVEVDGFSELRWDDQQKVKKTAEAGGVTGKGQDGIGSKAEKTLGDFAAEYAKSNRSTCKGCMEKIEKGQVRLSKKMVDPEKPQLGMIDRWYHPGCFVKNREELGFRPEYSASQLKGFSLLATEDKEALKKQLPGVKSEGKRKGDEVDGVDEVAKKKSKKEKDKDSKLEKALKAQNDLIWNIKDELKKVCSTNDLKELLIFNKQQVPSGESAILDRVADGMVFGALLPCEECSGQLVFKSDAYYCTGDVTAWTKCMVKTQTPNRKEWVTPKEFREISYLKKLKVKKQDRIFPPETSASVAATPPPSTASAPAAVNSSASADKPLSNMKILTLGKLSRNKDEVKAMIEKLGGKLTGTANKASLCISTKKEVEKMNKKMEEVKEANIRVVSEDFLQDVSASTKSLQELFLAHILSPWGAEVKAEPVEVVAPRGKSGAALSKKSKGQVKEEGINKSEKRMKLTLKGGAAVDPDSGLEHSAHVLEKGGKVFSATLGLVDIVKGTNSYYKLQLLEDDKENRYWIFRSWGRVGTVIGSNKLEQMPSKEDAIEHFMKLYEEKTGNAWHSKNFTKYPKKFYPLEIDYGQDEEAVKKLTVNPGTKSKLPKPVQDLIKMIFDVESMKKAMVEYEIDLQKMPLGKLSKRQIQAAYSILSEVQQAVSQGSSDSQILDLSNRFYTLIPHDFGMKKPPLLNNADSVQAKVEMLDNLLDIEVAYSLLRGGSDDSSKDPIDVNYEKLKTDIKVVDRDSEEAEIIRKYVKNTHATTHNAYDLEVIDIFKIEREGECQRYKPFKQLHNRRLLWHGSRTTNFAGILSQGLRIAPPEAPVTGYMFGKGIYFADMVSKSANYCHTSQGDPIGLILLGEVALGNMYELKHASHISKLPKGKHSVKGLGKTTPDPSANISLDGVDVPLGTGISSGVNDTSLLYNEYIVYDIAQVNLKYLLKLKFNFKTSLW

PARP2 trapping at DNA lesions (GFP-PARP2; veliparib, compared to DMSO-only control)	Compound	retention of PARP2 at induced damage sites (PARP trapping) (GFP-PARP2; talazoparib 100 nM, 10% 355 nm laser, 15 minutes, vs absence of PARPi)	retention of PARP1 at DNA damage sites (PARP1-trapping) (PARP1-GFP)	recruitment of PARP2 to the damage site (GFP-PARP2; veliparib 10 μM, 10% 355 nm laser, 15 minutes, vs absence of PARPi)
–	Cn1ncnc1[C@H]1c2n[nH]c(=O)c3cc(F)cc(c23)N[C@@H]1c1ccc(F)cc1 [talazoparib]	enhanced retention of PARP2	–	–
only weak trapping	C[C@]1(c2nc3c(C(N)=O)cccc3[nH]2)CCCN1 [veliparib]	–	enhanced retention of PARP1	less recruitment of PARP2; also recorded: overall less PARP2 recruitment
